Assay [1] concerns Hepatitis B virus. The assay is described as follows: Inhibition of wild type HBV transfected in human hepatoblastoma 2.2.15 cells at 10 ug/mL. The assay is classed as functional. The note with it: HepG2 2.2.15.
Assay [2] deals with Hepatitis B virus. The assay is described as follows: Inhibition of HBV M204I mutant transfected in B1 cell line at 10 ug/mL. The assay is classed as functional.
For assay [3], the system named is Vero. As to the kind of experiment: Cytotoxicity against Vero cell by MTT assay. The assay is classed as functional. Particulars: Chlorocebus sabaeus. (In general: Tetrazolium assays rely on reduction of a dye to a coloured formazan, in cell work by metabolically active cells.)
Assay [4] deals with Hepatitis B virus. The assay is described as follows: Inhibition of HBV L180M/ M204V mutant transfected in D88 cell line. The assay is classed as functional, organism-based.
For assay [5], the system named is Hepatitis B virus. The assay is described as follows: Inhibition of wild type HBV transfected in human hepatoblastoma 2.2.15 cells. Format: functional, organism-based. Particulars: HepG2 2.2.15.
The subject of assay [6] is HepG2. The assay is described as follows: Cytotoxicity against HepG2 cell by MTT assay. Particulars: Homo sapiens. Format: functional.
Assay [7] relates to Hepatitis B virus. As to the kind of experiment: Inhibition of HBV M204I mutant transfected in B1 cell line. Format: functional, organism-based.
Assay [8] relates to Duck hepatitis B virus. As to the kind of experiment: Inhibition of duck HBV transfected in primary duck hepatocytes. The assay is classed as functional, organism-based. The note with it: Hepatocyte.
In assay [9] the test system is Duck hepatitis B virus. As to the kind of experiment: Inhibition of duck HBV transfected in primary duck hepatocytes at 10 ug/mL. The assay is classed as functional. The note with it: Hepatocyte.
Assay [10] has as its system Hepatitis B virus. As to the kind of experiment: Inhibition of HBV L180M/ M204V mutant transfected in D88 cell line at 10 ug/mL. The assay is classed as functional.
Assay [11] has as its system West Nile virus. The assay is described as follows: Inhibitory activity against West Nile virus. Format: functional, organism-based.

Experimental findings from ChEMBL document CHEMBL1139011, “Inhibition of hepatitis B virus (HBV) replication by pyrimidines bearing an acyclic moiety: effect on wild-type and mutant HBV” (J Med Chem, 2006) are described below.

As usually defined, the inhibition is the drop in the measured response relative to a control, in per cent. The low end stands for a response near the control, the high end for a response far below the control. The CC50 is the concentration giving 50% cytotoxicity. Read a low CC50 as greater toxicity to the cells. The EC50 is the concentration giving half of the maximal effect. `O=c1[nH]c(=O)n(COCCO)cc1Cl`: the inhibition at 10 µg/mL in assay [1] was determined as 82%; in [2] it was 69%; in assay [9], 94%; in [10], 70%. Also, the CC50 in assay [3] and in assay [6] was > 454 µM each time. Also, the EC50 in [4] came to 4.5 µM; in assay [5], 4.5 µM; in [7], 4.5 µM; in assay [8], 0.4 µM.

Consider `O=c1[nH]c(=O)n(COCCO)cc1C(F)(F)F`, for which the inhibition at 10 µg/mL in assay [1] came to 55%; in assay [2], 53%; in [9], 76%; in assay [10], 50%. Further, the CC50 in assay [3] and in assay [6] was > 393 µM throughout. Also, the EC50 in assay [4] came to 39.3 µM; in assay [5], 19.6 µM; in assay [7] it was 39.3 µM; in assay [8] it was 3.9 µM.

As to `O=c1[nH]c(=O)n(COCCO)cc1I`, the 50% cytotoxic concentration (CC50) in assay [3] and in assay [6] was > 320 µM in each case. This molecule showed an EC50 in assay [8] of 32 µM. This molecule yielded an inhibition at 10 µg/mL in assay [9] of 50%.

Consider `Cc1c(I)c(=O)[nH]c(=O)n1COCCO`, for which the inhibition at 10 µg/mL in assay [1] came to 53%; in assay [2], 30%; in assay [9], 51%; in assay [10], 25%. The CC50 in assay [3] and in assay [6] was > 306 µM each time. The EC50 in [5] and in assay [8] was 30.6 µM throughout.

On to `O=c1[nH]c(=O)n(COCCO)cc1CO`, for which the inhibition at 10 µg/mL turned out to be 50% in assay [1], 0% in assay [2], 55% in assay [9] and 30% in assay [10]. The CC50 in assay [3] and in assay [6] was > 476 µM throughout. For the same molecule, the results for the EC50 in assay [5] and in [8] were 23.8 µM and 47.6 µM, respectively.

For the molecule `CCOC(=O)c1cn(COCCO)c(=S)[nH]c1=O`, the inhibition at 10 µg/mL in assay [1] turned out to be 50%; in assay [2] it was 20%; in [9] it was 53%; in [10] it was 0%. In addition, the CC50 in assay [3] and in assay [6] was > 364 µM in each case. The EC50 in assay [5] is 18.2 µM; in assay [8], 36.4 µM.

For the molecule `O=c1ccn(COCCO)c(=S)[nH]1`, the inhibition at 10 µg/mL in [1] was 42%; in [2] it was 30%; in assay [9], 46%; in assay [10], 0%. Besides, the CC50 in assay [3] and in [6] was > 495 µM throughout. The EC50 in [5] and in assay [8] was > 49.5 µM each time.

`Cc1cc(=O)[nH]c(=O)n1COCCO`: the inhibition at 10 µg/mL in [1] is 55%; in assay [2], 30%; in assay [9], 60%; in assay [10] it was 0%. Moreover, the CC50 in assay [3] and in [6] was > 500 µM in each case. The EC50 in assay [5] and in assay [8] was 25 µM throughout.

Regarding `Nc1cn(COCCO)c(=O)[nH]c1=O`, the inhibition at 10 µg/mL in assay [1] worked out at 50%; in assay [2], 30%; in assay [9], 65%; in assay [10], 30%. For the same molecule, the CC50 in [3] and in assay [6] was > 497 µM each time. For the same molecule, the results for the EC50 in assay [5] and in assay [8] were 50 µM and 5 µM, respectively.

As to `O=c1[nH]c(=O)n(COCCO)cc1Br`, the inhibition at 10 µg/mL is 60% in assay [1], 67% in assay [2], 89% in assay [9] and 73% in assay [10]. Further, the CC50 in [3] and in assay [6] was > 377 µM in each case. Besides, the EC50 was 3.7 µM in assay [4], 18.5 µM in assay [5], 18.5 µM in [7] and 3.7 µM in assay [8].

On to `O=c1[nH]c(=O)n(COCCO)cc1[N+](=O)[O-]`, for which the inhibition at 10 µg/mL in assay [1] is 54%; in [2] it was 30%; in assay [9], 53%; in assay [10], 0%. In addition, the CC50 in [3] and in [6] was > 432 µM each time. The concentration for a half-maximal effect (EC50) in assay [5] was 43.2 µM; in assay [8] it was 43.2 µM; in assay [11], > 134 µM.

`COC(=O)c1cc(=O)[nH]c(=O)n1COCCO`: the inhibition at 10 µg/mL in [1] was 60%; in assay [2], 0%; in [9], 56%; in assay [10], 0%. Further, the CC50 in assay [3] and in assay [6] was > 409 µM each time. Moreover, the EC50 in assay [5] and in assay [8] was 40.9 µM in each case.

Turning to `O=c1cnn(COCCO)c(=O)[nH]1`, the inhibition at 10 µg/mL in assay [1] and in [9] was 25% throughout. For the same molecule, the CC50 in [3] and in [6] was > 534 µM each time. For the same molecule, the EC50 in [5] and in assay [8] was > 53 µM throughout.

On to `CCc1cn(COCCO)c(=S)[nH]c1=O`, for which the inhibition at 10 µg/mL is 40% in assay [1], 20% in assay [2], 45% in [9] and 40% in assay [10]. Also, the CC50 in assay [3] and in assay [6] was > 478 µM in each case. Also, the EC50 in assay [4], in assay [5] and in assay [8] was > 47.8 µM each time.

Turning to `Cc1c([N+](=O)[O-])c(=O)[nH]c(=O)n1COCCO`, the inhibition at 10 µg/mL in assay [1] came to 60%; in assay [2], 25%; in assay [9], 68%; in assay [10], 20%. The CC50 in assay [3] and in assay [6] was > 408 µM in each case. Moreover, the EC50 in [5] and in assay [8] was 20.4 µM in each case.

Turning to `Nc1nc(NC2CC2)c2ncn([C@H]3C=C[C@@H](CO)C3)c2n1` [ABACAVIR], the inhibition at 10 µg/mL in [2] came to 80%; in assay [10], 72%. Besides, the EC50 in [4] and in assay [7] was 3.4 µM in each case.

As to `Nc1ccn([C@@H]2CS[C@H](CO)O2)c(=O)n1` [LAMIVUDINE], the inhibition at 10 µg/mL in [1] was 88%; in assay [2], 45%; in [9], 96%; in [10] it was 30%. The EC50 in assay [5] was 2.1 µM; in assay [7] it was > 44 µM; in [8], 0.04 µM.
